Reference: US20040198639A1, “Preserved and stable compositions containing peptide copper complexes and methods related thereto” (ProCyte Corporation, priority 2003, published 2004)

Assay: Storage stability of Example 1 solution: amounts of peptide copper complex and preservatives over time
Assay type: physicochemical
Settings: 40° C., 0 weeks
Experimental: The preservatives used are non-formaldehyde-donating preservatives. The solution was placed in a series of small sealed glass vials and stored at room temperature, at 40° C. and at 50° C. At various measured times, the amount of the peptide copper complex and of the preservatives was determined.

| Molecule | Amounts when Stored at 40° C. |
| --- | --- |
| COC(=O)c1ccc(O)cc1 [Methylparaben, methylparaben] | 1.83 mg/mL |
| CCCOC(=O)c1ccc(O)cc1 [Propylparaben, propylparaben] | 0.18 mg/mL |
| glycyl-L-histidyl-L-lysine:copper(II) | 1.06 mg/mL |

Same assay, conditions: 40° C., 1 week

| Molecule | Amounts when Stored at 40° C. |
| --- | --- |
| COC(=O)c1ccc(O)cc1 [Methylparaben, methylparaben] | 1.79 mg/mL |
| CCCOC(=O)c1ccc(O)cc1 [Propylparaben, propylparaben] | 0.18 mg/mL |
| glycyl-L-histidyl-L-lysine:copper(II) | 1.04 mg/mL |

Same assay, conditions: 40° C., 2 weeks

| Molecule | Amounts when Stored at 40° C. |
| --- | --- |
| COC(=O)c1ccc(O)cc1 [Methylparaben, methylparaben] | 1.80 mg/mL |
| CCCOC(=O)c1ccc(O)cc1 [Propylparaben, propylparaben] | 0.18 mg/mL |
| glycyl-L-histidyl-L-lysine:copper(II) | 1.07 mg/mL |

Same assay, conditions: 40° C., 3 weeks

| Molecule | Amounts when Stored at 40° C. |
| --- | --- |
| COC(=O)c1ccc(O)cc1 [Methylparaben, methylparaben] | 1.77 mg/mL |
| CCCOC(=O)c1ccc(O)cc1 [Propylparaben, propylparaben] | 0.18 mg/mL |
| glycyl-L-histidyl-L-lysine:copper(II) | 1.06 mg/mL |

Same assay, conditions: 40° C., 4 weeks

| Molecule | Amounts when Stored at 40° C. |
| --- | --- |
| COC(=O)c1ccc(O)cc1 [Methylparaben, methylparaben] | 1.75 mg/mL |
| CCCOC(=O)c1ccc(O)cc1 [Propylparaben, propylparaben] | 0.18 mg/mL |
| glycyl-L-histidyl-L-lysine:copper(II) | 1.06 mg/mL |

Same assay, conditions: 50° C., 0 weeks

| Molecule | Amounts when Stored at 50° C. |
| --- | --- |
| COC(=O)c1ccc(O)cc1 [Methylparaben, methylparaben] | 1.83 mg/mL |
| CCCOC(=O)c1ccc(O)cc1 [Propylparaben, propylparaben] | 0.18 mg/mL |
| glycyl-L-histidyl-L-lysine:copper(II) | 1.06 mg/mL |

Same assay, conditions: 50° C., 1 week

| Molecule | Amounts when Stored at 50° C. |
| --- | --- |
| COC(=O)c1ccc(O)cc1 [Methylparaben, methylparaben] | 1.77 mg/mL |
| CCCOC(=O)c1ccc(O)cc1 [Propylparaben, propylparaben] | 0.18 mg/mL |
| glycyl-L-histidyl-L-lysine:copper(II) | 1.05 mg/mL |

Same assay, conditions: 50° C., 2 weeks

| Molecule | Amounts when Stored at 50° C. |
| --- | --- |
| COC(=O)c1ccc(O)cc1 [Methylparaben, methylparaben] | 1.70 mg/mL |
| CCCOC(=O)c1ccc(O)cc1 [Propylparaben, propylparaben] | 0.17 mg/mL |
| glycyl-L-histidyl-L-lysine:copper(II) | 1.04 mg/mL |

Same assay, conditions: 50° C., 3 weeks

| Molecule | Amounts when Stored at 50° C. |
| --- | --- |
| COC(=O)c1ccc(O)cc1 [Methylparaben, methylparaben] | 1.65 mg/mL |
| CCCOC(=O)c1ccc(O)cc1 [Propylparaben, propylparaben] | 0.17 mg/mL |
| glycyl-L-histidyl-L-lysine:copper(II) | 1.04 mg/mL |

Same assay, conditions: 50° C., 4 weeks

| Molecule | Amounts when Stored at 50° C. |
| --- | --- |
| COC(=O)c1ccc(O)cc1 [Methylparaben, methylparaben] | 1.63 mg/mL |
| CCCOC(=O)c1ccc(O)cc1 [Propylparaben, propylparaben] | 0.17 mg/mL |
| glycyl-L-histidyl-L-lysine:copper(II) | 1.04 mg/mL |

Same assay, conditions: room temperature, 0 weeks

| Molecule | Amounts when Stored at Room Temperature |
| --- | --- |
| COC(=O)c1ccc(O)cc1 [Methylparaben, methylparaben] | 1.83 mg/mL |
| CCCOC(=O)c1ccc(O)cc1 [Propylparaben, propylparaben] | 0.18 mg/mL |
| glycyl-L-histidyl-L-lysine:copper(II) | 1.06 mg/mL |

Same assay, conditions: room temperature, 1 week

| Molecule | Amounts when Stored at Room Temperature |
| --- | --- |
| COC(=O)c1ccc(O)cc1 [Methylparaben, methylparaben] | 1.81 mg/mL |
| CCCOC(=O)c1ccc(O)cc1 [Propylparaben, propylparaben] | 0.18 mg/mL |
| glycyl-L-histidyl-L-lysine:copper(II) | 1.05 mg/mL |

Same assay, conditions: room temperature, 2 weeks

| Molecule | Amounts when Stored at Room Temperature |
| --- | --- |
| COC(=O)c1ccc(O)cc1 [Methylparaben, methylparaben] | 1.84 mg/mL |
| CCCOC(=O)c1ccc(O)cc1 [Propylparaben, propylparaben] | 0.18 mg/mL |
| glycyl-L-histidyl-L-lysine:copper(II) | 1.06 mg/mL |

Same assay, conditions: room temperature, 3 weeks

| Molecule | Amounts when Stored at Room Temperature |
| --- | --- |
| COC(=O)c1ccc(O)cc1 [Methylparaben, methylparaben] | 1.82 mg/mL |
| CCCOC(=O)c1ccc(O)cc1 [Propylparaben, propylparaben] | 0.18 mg/mL |
| glycyl-L-histidyl-L-lysine:copper(II) | 1.07 mg/mL |

Same assay, conditions: room temperature, 4 weeks

| Molecule | Amounts when Stored at Room Temperature |
| --- | --- |
| COC(=O)c1ccc(O)cc1 [Methylparaben, methylparaben] | 1.81 mg/mL |
| CCCOC(=O)c1ccc(O)cc1 [Propylparaben, propylparaben] | 0.18 mg/mL |
| glycyl-L-histidyl-L-lysine:copper(II) | 1.07 mg/mL |

Same assay, conditions: room temperature, 28 weeks

| Molecule | Amounts when Stored at Room Temperature |
| --- | --- |
| COC(=O)c1ccc(O)cc1 [Methylparaben, methylparaben] | 1.80 mg/mL |
| CCCOC(=O)c1ccc(O)cc1 [Propylparaben, propylparaben] | 0.18 mg/mL |
| glycyl-L-histidyl-L-lysine:copper(II) | 1.05 mg/mL |
